Measurements taken from US9233978B2, “6-fused heteroaryldihydropyrimidines for the treatment and prophylaxis of hepatitis B virus infection” (Hoffmann-La Roche Inc., priority 2014, dated 2016).
Like-named read-outs stand apart in the source and are kept apart here.

Columns and labels:
HBV = experiment: Anti-HBV activity in vitro, HepG2.2.15 cells, extracellular HBV DNA by qPCR; type: cell-based; conditions: HepG2.2.15 cells, HBV replication inhibited by 50%, extracellular HBV DNA by qPCR, five days after compound treatment, read-out: EC50
Procedure, shortened: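 Extracellular HBV DNA in culture supernatant was measured by qPCR after nucleic acid extraction. The supernatant came from constitutively replicating HepG2.2.15 cells exposed for five days to half-log-diluted compounds, with DMSO at 0.5% final. Cells had been plated overnight at 37 °C beforehand.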

HepDE19 cells = experiment: Cytotoxicity in HepDE19 cells (CCK-8) and selectivity index; type: cell-based; conditions: for Selectivity index (CC50/EC50): CC50 (HepDE19) value / EC50 (HepG2.2.15) value; for CC50: HepDE19 cells, CCK-8 cell viability, five days after treatment
Source text: (§1) HepG2.2.15 and HepDE19 are stably-transfected cell lines containing the HBV genome. Both cell lines are derived from the hepatoblastoma cell line Hep G2 (American Type Culture Collection, ATCC® HB-8065™) by the published procedures described in references: MA Selles et al. Proc. Natl. Acad. Sci. USA 1987, 84, 1005-1009 and H Guo et al. Journal of Virology 2007, 81, 12472-12484, respectively. Both cell lines were maintained in Dulbecco's modified Eagle's medium (DMEM)-F12 medium supplemented with 10% fetal bovine serum, 100 U/mL penicillin, 100 μg/mL streptomycin, and 0.5 mg/mL of G418.
(§2) HepDE19 cells were seeded into 96-well plates (5×10^3 cells per well) and treated with compounds for EC50 determination. Five days after treatment, cell viability was measured by addition of 20 μL of CCK-8 reagent. Two hours after incubation at 37° C., the absorbance at wavelengths of 450 nm and 630 nm (OD450 and OD630) was recorded by a plate reader. The concentration results in the death of 50% of the host cells (CC50) of each compound were determined.
(§3) The relative effectiveness of the compound in inhibiting viral replication compared to inducing cell death was defined as the selectivity index (CC50 value/EC50 value). Based on CC50 and EC50 data, selectivity indexes were determined.

[1] = Human microsomal metabolic stability; type: in vitro ADME; conditions: human microsomes 0.5 mg/mL, 1 μM test compound, NADPH, 37° C., pH 7.4, 0-30 minutes
Method: Human Microsomes (BD Gentest) were preincubated with test compound for 10 minutes at 37° C. in 100 mM phosphate buffer, pH 7.4. The reactions were initiated by adding NADPH or NADPH regenerating system to give a final incubation volume of 400 μL. For NADPH system, the final incubations contained 1 μM test compound, 0.5 mg/mL liver microsomal protein, 1 mM NADPH in 100 mM phosphate buffer, pH 7.4. For the NADPH regenerating system, the final incubations contained 1 μM test compound, 0.5 mg/mL liver microsomal protein, 3 mM glucose 6-phosphate, 1 mM NADP, 3 mM MgCl2 and 0.05 mg/mL glucose 6-phosphate dehydrogenase in 100 mM phosphate buffer, pH 7.4. After incubation times of 0, 3, 6, 9, 15 and 30 minutes at 37° C., 1 sample was obtained from each time point and 50 μL of each sample was removed and transferred to 150 μL of methanol solution which was maintained at 4° C. and contained 2 μM tolbutamide as internal standard. Following precipitation and centrifugation, the amount of compound remaining in the samples were determined by LC-MS/MS. Controls of no NADPH or no NADPH regenerating system at zero and 30 minutes were also prepared and analyzed.

Lysa solubility = type: physicochemical; conditions: 0.05 M phosphate buffer (pH 6.5); for solubility thermodynamic: phosphate buffer, pH 6.5, aqueous buffer, thermodynamic from solid
Method: Samples were prepared in duplicate from 10 mM DMSO stock solutions. After evaporation of DMSO with a centrifugal vacuum evaporator, the residue was solved in 0.05 M phosphate buffer (pH 6.5), stirred for one hour and shook for two hours. After one night, the solution was filtered using a microtiter filter plate. Then the filtrate and its 1/10 dilution were analyzed by direct UV measurement or by HPLC-UV. […] The results were in μg/mL. In case the percentage of sample measured in solution after evaporation divided by the calculated maximum of sample amount was over 80%, the solubility was reported as higher than this value.

[2] = Cytotoxicity in HepDE19 cells (CCK-8) and selectivity index; type: cell-based; conditions: human, HepDE19 cells; CCK-8 cell viability; five days after treatment
Source text: as §1, §2, §3

[3] = Hepatitis B virus, HepG2.2.15, 120 h

SMILES	EC50 (HBV) [µM]	Selectivity index (CC50/EC50) (HepDE19 cells)	CC50 (HepDE19 cells) [µM]	Human Microsomal Clearance [1] [mL/min/kg]	Lysa (Lysa solubility) [µg/mL]	EC50 (HBV; [3]) [µM]	CC50 at 5 days [2] [µM]	solubility thermodynamic (Lysa solubility) [µg/mL]
COC(=O)C1=C(CN2CCN3C(=O)N(C4CCC(C(=O)O)C4)C[C@@H]3C2)NC(c2nccs2)=N[C@H]1c1ccc(F)cc1Cl (mixture of isomers) [Example 63, (R)-6-[(S)-2-((1R,3R)-3-Carboxy-cyclopentyl)-3-oxo-hexahydro-imidazo[1,5-a]pyrazin-7-ylmethyl]-4-(2-chloro-4-fluoro-phenyl)-2-thiazol-2-yl-1,4-dihydro-pyrimidine-5-carboxylic acid methyl ester and (R)-6-[(S)-2-((1S,3S)-3-Carboxy-cyclopentyl)-3-oxo-hexahydro-imidazo[1,5-a]pyrazin-7-ylmethyl]-4-(2-chloro-4-fluoro-phenyl)-2-thiazol-2-yl-1,4-dihydro-pyrimidine-5-carboxylic acid methyl ester]	0.012	7583	91	5.3	>751	–	–	–
CCOC(=O)C1=C(CN2CCN3C(=O)N(C4CCC(C(=O)O)C4)C[C@@H]3C2)NC(c2nccs2)=N[C@H]1c1cccc(F)c1Cl (mixture of isomers) [Example 64, (R)-6-[(S)-2-((1R,3R)-3-Carboxy-cyclopentyl)-3-oxo-hexahydro-imidazo[1,5-a]pyrazin-7-ylmethyl]-4-(2-chloro-3-fluoro-phenyl)-2-thiazol-2-yl-1,4-dihydro-pyrimidine-5-carboxylic acid ethyl ester and (R)-6-[(S)-2-((1S,3S)-3-Carboxy-cyclopentyl)-3-oxo-hexahydro-imidazo[1,5-a]pyrazin-7-ylmethyl]-4-(2-chloro-3-fluoro-phenyl)-2-thiazol-2-yl-1,4-dihydro-pyrimidine-5-carboxylic acid ethyl ester]	0.008	8375	67	5.6	>669	–	–	–
CCOC(=O)C1=C(CN2CCN3C(=O)N(CC4CC4)C[C@@H]3[C@H]2C(=O)O)NC(c2nccs2)=N[C@H]1c1cccc(F)c1Cl (single isomer, unassigned) [Example 97B]	–	>100000	–	–	–	0.0009	> 100	–
CCOC(=O)C1=C(CN2CCN3C(=O)N(C(C)C)C[C@@H]3C2)NC(c2nccs2)=N[C@H]1c1cccc(F)c1Cl (single isomer, unassigned) [Example 104B]	–	>6750	–	–	–	0.004	27	–
CCOC(=O)C1=C(CN2CCN3C(=O)N(CC(C)(C)O)C[C@@H]3C2)NC(c2nccs2)=N[C@H]1c1cccc(F)c1Cl (single isomer, unassigned) [Example 106B]	–	21666	–	–	–	0.003	65	–
COC(=O)C1=C(CN2CCN3C(=O)OC[C@@H]3C2)NC(c2nccs2)=N[C@H]1c1ccc(F)cc1Cl [Example 4, Methyl (4R)-6-[[(8aS)-3-oxo-5,6,8,8a-tetrahydro-1H-oxazolo[3,4-a]pyrazin-7-yl]methyl]-4-(2-chloro-4-fluoro-phenyl)-2-thiazol-2-yl-1,4-dihydropyrimidine-5-carboxylate]	–	23872	–	–	–	0.003	79	–
CCOC(=O)C1=C(CN2CCN3C(=O)NC[C@@H]3C2)NC(c2nccs2)=N[C@H]1c1ccc(F)cc1Br [Example 14, Ethyl (4R)-6-[[(8aR)-3-oxo-1,2,5,6,8,8a-hexahydroimidazo[1,5-a]pyrazin-7-yl]methyl]-4-(2-bromo-4-fluoro-phenyl)-2-thiazol-2-yl-1,4-dihydropyrimidine-5-carboxylate]	–	13016	–	–	–	0.002	23	–
CCOC(=O)C1=C(CN2CCN3C(=O)NCC3(C(=O)OC)C2)NC(c2nccs2)=N[C@H]1c1cccc(F)c1Cl (stereo partly drawn) [Example 24, Methyl 7-[[(4R)-4-(2-chloro-3-fluoro-phenyl)-5-ethoxycarbonyl-2-thiazol-2-yl-1,4-dihydropyrimidin-6-yl]methyl]-3-oxo-2,5,6,8-tetrahydro-1H-imidazo[1,5-a]pyrazine-8a-carboxylate]	–	37857	–	–	–	0.001	53	–
CCOC(=O)C1=C(CN2CCN3C(=O)N(c4ccc(C(=O)O)cc4)C[C@@H]3C2)NC(c2nccs2)=N[C@H]1c1cccc(F)c1Cl [Example 26, (R)-6-[(S)-2-(4-Carboxy-phenyl)-3-oxo-hexahydro-imidazo[1,5-a]pyrazin-7-ylmethyl]-4-(2-chloro-3-fluoro-phenyl)-2-thiazol-2-yl-1,4-dihydro-pyrimidine-5-carboxylic acid ethyl ester]	–	18620	–	–	–	0.002	28	–
CCOC(=O)C1=C(CN2CCN3C(=O)N(CCO)CC3C2)NC(c2nccs2)=N[C@H]1c1cccc(F)c1Cl (stereo partly drawn) [Example 70, Ethyl (4R)-4-(2-chloro-3-fluoro-phenyl)-6-[[2-(2-hydroxyethyl)-3-oxo-5,6,8,8a-tetrahydro-1H-imidazo[1,5-a]pyrazin-7-yl]methyl]-2-thiazol-2-yl-1,4-dihydropyrimidine-5-carboxylate]	–	12600	–	–	–	0.005	63	–
CCOC(=O)C1=C(CN2CCN3C(=O)N(CC(OC)C(=O)O)C[C@@H]3C2)NC(c2nccs2)=N[C@H]1c1cccc(F)c1Cl (stereo partly drawn) [Example 78, 3-[(8aS)-7-[[(4R)-4-(2-chloro-3-fluoro-phenyl)-5-ethoxycarbonyl-2-thiazol-2-yl-1,4-dihydropyrimidin-6-yl]methyl]-3-oxo-5,6,8,8a-tetrahydro-1H-imidazo[1,5-a]pyrazin-2-yl]-2-methoxy-propanoic acid]	–	–	–	6.7	–	0.387	–	> 793
COC(=O)C1=C(CN2CCN3C(=O)N(CCCCC(=O)O)C[C@@H]3C2)NC(c2nccs2)=N[C@H]1c1ccc(F)cc1Cl [Example 80, 5-[(8aS)-7-[[(4R)-4-(2-chloro-4-fluoro-phenyl)-5-methoxycarbonyl-2-thiazol-2-yl-1,4-dihydropyrimidin-6-yl]methyl]-3-oxo-5,6,8,8a-tetrahydro-1H-imidazo[1,5-a]pyrazin-2-yl]pentanoic acid]	–	–	–	8.3	–	0.032	–	> 616
COC(=O)C1=C(CN2CCN3C(=O)NCC3(C(=O)OC)C2)NC(c2nccs2)=N[C@H]1c1ccc(F)cc1Cl (stereo partly drawn) [Example 89, Methyl 7-[[(4R)-4-(2-chloro-4-fluoro-phenyl)-5-methoxycarbonyl-2-thiazol-2-yl-1,4-dihydropyrimidin-6-yl]methyl]-3-oxo-2,5,6,8-tetrahydro-1H-imidazo[1,5-a]pyrazine-8a-carboxylate]	–	10714	–	–	–	0.007	75	–
CCCOC(=O)C1=C(CN2CCN3C(=O)N(CC(C)(C)C(=O)O)C[C@@H]3C2)NC(c2nccs2)=N[C@H]1c1cccc(F)c1Cl [Example 93, 3-[(8aS)-7-[[(4R)-4-(2-chloro-3-fluoro-phenyl)-5-propoxycarbonyl-2-thiazol-2-yl-1,4-dihydropyrimidin-6-yl]methyl]-3-oxo-5,6,8,8a-tetrahydro-1H-imidazo[1,5-a]pyrazin-2-yl]-2,2-dimethyl-propanoic acid]	–	7167	–	–	–	0.012	86	–
